Assay results reported in patent US20170231910A1, “PHARMACEUTICAL FORMULATIONS OF CHELATING AGENTS AS A METAL REMOVAL TREATMENT SYSTEM” (ZONEONE PHARMA, INC., priority 2014, published 2017).
Counter-ions that a name gives are not always drawn.

How the values were obtained:
[1] = tested on: Iron Overloaded Mouse Model; experiment: Liver iron removal from iron overloaded mouse model (ferrozine assay); type: in vivo; settings: iron-dextran overloaded mice, IV 100 mg/kg chelator on day 7 and day 10
Description: LDFO formulations were prepared as described in Example 1. Both formulations were composed of HSPC/cholesterol (3/0.5 (mol/mol)). One formulation was prepared using 250 mM ammonium sulfate (LDFO-AS) as the trapping agent and the second formulation was prepared using 250 mM ascorbate phosphate (LDFO-AP) as the trapping agent and all other components and DFO loading procedures of the formulations were identical. Mice were overloaded with a single IV injection of iron-dextran at 100 mg/kg Fe. Overloaded mice were treated with each formulation IV at 100 mg/kg chelator on day 7 and day 10. The mice were sacrificed after the second treatment and the livers were analyzed for iron content using a ferrozine assay (Riemer et al. 2004)

[2] = PK of DFO in plasma of mice after liposomal DFO or Desferal; type: in vivo, CF-1 female mice; settings: 100 mg/kg
Description: Liposomes containing egg PC/Chol (3 mol/2 mol, LDFO-1), egg PC/DOPG/Chol (2.7 mol/0.3 mol/2 mol, LDFO-2), and HSPC/Chol (3 mol/2 mol, LDFO-4) containing 500 mM ammonium sulfate were prepared as in Example 1. DFO was remote loaded as in Example 20.
After loading the liposomes were purified by dialysis versus HBS pH 6.5. The liposomes were sterilized by filtration through 0.2 um PES filters and analyzed for drug and lipid content. The liposomal DFO were administered to CF-1 female mice at 100 mg/kg (n=3) and at various times the animals were sacrificed and blood taken.
After processing to plasma, DFO was extracted from plasma by mixing with 6 volumes of methanol containing 0.1% trifluoroacetic acid in an eppendorf tube. The mixtures were vortexed twice for 10 seconds then placed at −80° C. for 1 h. The samples were thawed and centrifuged for 12,000 rpm for 10 min at 4° C. and the supernatant analyzed for DFO by HPLC as described herein. […] By comparison DFO was undetectable beyond 1 h after dosing with Desferal®.

CC(=O)N(O)CCCCCNC(=O)CCC(=O)N(O)CCCCCNC(=O)CCC(=O)N(O)CCCCCN [Desferal, deferoxamine mesylate]
mean liver iron content after treating [1]: 229 mg/kg
DFO in plasma after dosing ([2]; beyond 1 h after dosing): undetectable
initial dose (ID) of DFO retained in the plasma at 24 h ([2]; IV, 24 h): undetectable
